Test results published in PMC10519361, “Shigella flexneri utilizes intestinal signals to control its virulence” (Gut Microbes, 2023).

Biological target: T1, VirF (Shigella flexneri, UniProt P0A2T1)
T1 construct: full ORF in pET15b, His-tagged (tag apparently kept)
Experiment: ELISA, fatty acid coated on plate, His-VirF detected by anti-His antibody
Assay type: binding
Details: read-out: apparent Kd

T1 sequence (P0A2T1 whole entry): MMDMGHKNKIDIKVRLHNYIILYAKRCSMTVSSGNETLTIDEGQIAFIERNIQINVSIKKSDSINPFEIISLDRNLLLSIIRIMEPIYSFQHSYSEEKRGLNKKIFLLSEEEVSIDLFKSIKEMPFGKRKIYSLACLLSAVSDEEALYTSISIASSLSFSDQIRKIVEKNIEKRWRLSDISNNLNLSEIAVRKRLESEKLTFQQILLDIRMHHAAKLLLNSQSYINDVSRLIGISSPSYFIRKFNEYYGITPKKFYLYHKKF

SMILES | Kd
CCCCCCCCCCCCC/C=C/C(=O)O [t2-HDA] | 9.5 µM
CCCCCCCCCCCCCCCCC/C=C\C(=O)O [c2-EA] | 11.2 µM
CCCCCC/C=C\CCCCCCCC(=O)O [palmitoleic acid] | 12.9 µM
CCCCCCCC/C=C\CCCCCCCC(=O)O [oleic acid] | 14.3 µM
CCCCCCCCCCCCC/C=C\C(=O)O [c2-HDA] | 8.2 µM
